# Target: T1, human TREK-1 (Homo sapiens, UniProt O95069)
# T1 construct: expressed in transfected cells
# T1 sequence (O95069 1-426): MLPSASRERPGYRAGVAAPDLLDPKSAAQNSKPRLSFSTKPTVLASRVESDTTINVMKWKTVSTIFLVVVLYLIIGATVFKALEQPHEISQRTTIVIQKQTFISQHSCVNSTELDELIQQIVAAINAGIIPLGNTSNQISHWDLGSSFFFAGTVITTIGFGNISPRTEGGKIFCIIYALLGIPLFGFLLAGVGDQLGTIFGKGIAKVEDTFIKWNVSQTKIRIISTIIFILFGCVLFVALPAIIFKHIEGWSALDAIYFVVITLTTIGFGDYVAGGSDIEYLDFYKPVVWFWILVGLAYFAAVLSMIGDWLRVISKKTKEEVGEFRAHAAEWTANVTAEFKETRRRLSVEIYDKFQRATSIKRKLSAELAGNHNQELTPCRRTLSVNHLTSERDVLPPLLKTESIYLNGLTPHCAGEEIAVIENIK
# Test: TREK-1 Thallium (Tl+) flux assay, Method 1
# Assay type: cell-based
# Settings: TREK-1 Thallium (Tl+) flux assay; values without footnote *12 are Method 1
# How it was run: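 Readout: Thallos fluorescence ratio, taken 25 s post-thallium relative to the pre-thallium baseline average, then converted to % inhibition. Cells were CHO-K1 stably expressing human TREK-1, dye-loaded and exposed to test compound (vehicle 0.3% DMSO) for 10 min prior to thallium stimulation.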
row,Compound,IC50 [nM]
1,"O=C(Nc1ncc(C#Cc2cccs2)cc1F)c1c(Cl)cnn1CC1CCOCC1 [Compound 69, 4-chloro-N-(3-fluoro-5-(thiophen-2-ylethynyl)pyridin-2-yl)-1-((tetrahydro-2H-pyran-4-yl)methyl)-1H-pyrazole-5-carboxamide]",160
2,"CS(=O)(=O)N1CCC(n2ncc(Cl)c2C(=O)Nc2ncc(C#Cc3ccccc3)cc2F)CC1 [Compound 70, 4-chloro-N-(3-fluoro-5-(phenylethynyl)pyridin-2-yl)-1-(1-(methylsulfonyl)piperidin-4-yl)-1H-pyrazole-5-carboxamide]",160
3,"CC(=O)N1CCC(n2ncc(Cl)c2C(=O)Nc2ncc(C#Cc3cccc(F)c3)cc2C)CC1 [Compound 71, 1-(1-acetylpiperidin-4-yl)-4-chloro-N-(5-((3-fluorophenyl)ethynyl)-3-methylpyridin-2-yl)-1H-pyrazole-5-carboxamide]",160
4,"CC(=O)N1CCC(n2ncc(Cl)c2C(=O)Nc2ncc(C#Cc3cccc(F)c3)cc2C)CC1C (stereo not shown) [Compound 72, 1-(1-acetyl-2-methylpiperidin-4-yl)-4-chloro-N-(5-((3-fluorophenyl)ethynyl)-3-methylpyridin-2-yl)-1H-pyrazole-5-carboxamide]",160
5,"CCNC(=O)N1CCC(n2ncc(Cl)c2C(=O)Nc2ncc(C#Cc3cccs3)cc2C)CC1 [Compound 73, 4-(4-chloro-5-((3-methyl-5-(thiophen-2-ylethynyl)pyridin-2-yl)carbamoyl)-1H-pyrazol-1-yl)-N-ethylpiperidine-1-carboxamide]",160
6,"CCNC(=O)N1C[C@H]2C[C@H](n3ncc(Cl)c3C(=O)Nc3ncc(C#Cc4cccs4)cc3C)C[C@H]2C1 [Compound 74, (3aR,5s,6aS)-5-[4-chloro-5-({3-methyl-5-[(thiophen-2-yl)ethynyl]pyridin-2-yl}carbamoyl)-1H-pyrazol-1-yl]-N-ethylhexahydrocyclopenta[c]pyrrole-2(1H)-carboxamide]",160
7,"CCNC(=O)N1CCC(n2ncc(Cl)c2C(=O)Nc2ncc(C#Cc3cccc(F)c3)cc2C)CC1 [Compound 75, 4-(4-chloro-5-((5-((3-fluorophenyl)ethynyl)-3-methylpyridin-2-yl)carbamoyl)-1H-pyrazol-1-yl)-N-ethylpiperidine-1-carboxamide]",160
8,"Cc1cc(C#Cc2cccs2)cnc1NC(=O)c1c(Cl)cnn1CC1CCN(C(=O)C(C)C)CC1 [Compound 76, 4-chloro-1-((1-isobutyrylpiperidin-4-yl)methyl)-N-(3-methyl-5-(thiophen-2-ylethynyl)pyridin-2-yl)-1H-pyrazole-5-carboxamide]",160
9,"Cc1cc(C#Cc2ccccc2)cnc1NC(=O)c1c(Cl)cnn1C(C)C1CCN(C(=O)OC(C)(C)C)CC1 (stereo not shown) [Compound 77, tert-butyl 4-(1-(4-chloro-5-((3-methyl-5-(phenylethynyl)pyridin-2-yl)carbamoyl)-1H-pyrazol-1-yl)ethyl)piperidine-1-carboxylate]",160
10,"CC(C1CCN(C(=O)OC(C)(C)C)CC1)n1ncc(Cl)c1C(=O)Nc1ncc(C#Cc2ccccc2)cc1F (stereo not shown) [Compound 78, tert-butyl 4-(1-(4-chloro-5-((3-fluoro-5-(phenylethynyl)pyridin-2-yl)carbamoyl)-1H-pyrazol-1-yl)ethyl)piperidine-1-carboxylate]",160
11,"Cc1cc(C#Cc2ccccc2)cnc1NC(=O)c1c(Cl)cnn1C1CCN(C(=O)C2CC2)C1 (stereo not shown) [Compound 79, 4-chloro-1-(1-(cyclopropanecarbonyl)pyrrolidin-3-yl)-N-(3-methyl-5-(phenylethynyl)pyridin-2-yl)-1H-pyrazole-5-carboxamide]",160
12,"Cc1cc(C#Cc2ccccc2)cnc1NC(=O)c1c(Cl)cnn1C1CCN(C(=O)C2COCCO2)C1 (stereo not shown) [Compound 80, 1-(1-(1,4-dioxane-2-carbonyl)pyrrolidin-3-yl)-4-chloro-N-(3-methyl-5-(phenylethynyl)pyridin-2-yl)-1H-pyrazole-5-carboxamide]",160
13,"Cc1cc(C#Cc2ccccc2)cnc1NC(=O)c1c(Cl)cnn1C1CN(C(=O)C2COCCO2)C1 (stereo not shown) [Compound 81, 1-(1-(1,4-dioxane-2-carbonyl)azetidin-3-yl)-4-chloro-N-(3-methyl-5-(phenylethynyl)pyridin-2-yl)-1H-pyrazole-5-carboxamide]",160
14,"CC(=O)N1CC[C@H](Cn2ncc(Cl)c2C(=O)Nc2ncc(C#Cc3ccccc3)cc2C)[C@H](F)C1 [Compound 82, 1-(((3S,4R)-1-acetyl-3-fluoropiperidin-4-yl)methyl)-4-chloro-N-(3-methyl-5-(phenylethynyl)pyridin-2-yl)-1H-pyrazole-5-carboxamide]",160
15,"CC(C)(C)OC(=O)N1CCC(C#N)(Cn2ncc(Cl)c2C(=O)Nc2ncc(C#Cc3ccccc3)cc2F)CC1 [Compound 83, tert-butyl 4-((4-chloro-5-((3-fluoro-5-(phenylethynyl)pyridin-2-yl)carbamoyl)-1H-pyrazol-1-yl)methyl)-4-cyanopiperidine-1-carboxylate]",160
16,"CC(=O)N1CCC(C#N)(Cn2ncc(Cl)c2C(=O)Nc2ncc(C#Cc3ccccc3)cc2C)CC1 [Compound 84, 1-((1-acetyl-4-cyanopiperidin-4-yl)methyl)-4-chloro-N-(3-methyl-5-(phenylethynyl)pyridin-2-yl)-1H-pyrazole-5-carboxamide]",160
17,"CC(=O)N1CCC(Cn2ncc(Cl)c2C(=O)Nc2ncc(C#Cc3ccccc3)cc2C)CC1 [Compound 85, 1-((1-acetylpiperidin-4-yl)methyl)-4-chloro-N-(3-methyl-5-(phenylethynyl)pyridin-2-yl)-1H-pyrazole-5-carboxamide]",170
18,"Cc1cc(C#Cc2ccccc2)cnc1NC(=O)c1c(Cl)cnn1C1CN(C(=O)C2CC2)C1 [Compound 87, 4-chloro-1-(1-(cyclopropanecarbonyl)azetidin-3-yl)-N-(3-methyl-5-(phenylethynyl)pyridin-2-yl)-1H-pyrazole-5-carboxamide]",170
19,"CC(=O)N1CC[C@@H](Cn2ncc(Cl)c2C(=O)Nc2ncc(C#Cc3ccccc3)cc2F)[C@@H](F)C1 [Compound 88, 1-(((3R,4S)-1-acetyl-3-fluoropiperidin-4-yl)methyl)-4-chloro-N-(3-fluoro-5-(phenylethynyl)pyridin-2-yl)-1H-pyrazole-5-carboxamide]",170
20,"Cc1cc(C#Cc2cccs2)cnc1NC(=O)c1c(Cl)cnn1[C@H]1CCOC1 [Compound 89, (S)-4-chloro-N-(3-methyl-5-(thiophen-2-ylethynyl)pyridin-2-yl)-1-(tetrahydrofuran-3-yl)-1H-pyrazole-5-carboxamide]",180
21,"CCNC(=O)N1CCC(n2ncc(Cl)c2C(=O)Nc2ncc(C#Cc3ccccc3)cc2C)CC1 [Compound 90, 4-(4-chloro-5-((3-methyl-5-(phenylethynyl)pyridin-2-yl)carbamoyl)-1H-pyrazol-1-yl)-N-ethylpiperidine-1-carboxamide]",180
22,"CC1CC1C(=O)N1CCC(n2ncc(Cl)c2C(=O)Nc2ncc(C#Cc3ccccc3)cc2F)CC1 (stereo not shown) [Compound 91, 4-chloro-N-(3-fluoro-5-(phenylethynyl)pyridin-2-yl)-1-(1-(2-methylcyclopropane-1-carbonyl)piperidin-4-yl)-1H-pyrazole-5-carboxamide]",180
23,"CCNC(=O)N1CCC(n2ncc(Cl)c2C(=O)Nc2ncc(C#Cc3ccc(F)cc3)cc2C)CC1 [Compound 92, 4-(4-chloro-5-((5-((4-fluorophenyl)ethynyl)-3-methylpyridin-2-yl)carbamoyl)-1H-pyrazol-1-yl)-N-ethylpiperidine-1-carboxamide]",180
24,"CC(=O)N1CC(Cn2ncc(Cl)c2C(=O)Nc2ncc(C#Cc3ccccc3)cc2F)C1 [Compound 93, 1-((1-acetylazetidin-3-yl)methyl)-4-chloro-N-(3-fluoro-5-(phenylethynyl)pyridin-2-yl)-1H-pyrazole-5-carboxamide]",180
25,"CC(=O)N[C@H]1C[C@@H](n2ncc(Cl)c2C(=O)Nc2ncc(C#Cc3ccccc3)cc2F)C1 [Compound 94, 1-(cis-3-acetamidocyclobutyl)-4-chloro-N-(3-fluoro-5-(phenylethynyl)pyridin-2-yl)-1H-pyrazole-5-carboxamide]",180
26,"O=C(Nc1ncc(C#Cc2cccs2)cc1F)c1c(Cl)cnn1C1CCN(C(=O)C2COCCO2)CC1 (stereo not shown) [Compound 95, 1-(1-(1,4-dioxane-2-carbonyl)piperidin-4-yl)-4-chloro-N-(3-fluoro-5-(thiophen-2-ylethynyl)pyridin-2-yl)-1H-pyrazole-5-carboxamide]",180
27,"Cc1cc(C#Cc2ccc(F)cc2)cnc1NC(=O)c1c(Cl)cnn1CCN1CCN(C(=O)C2CC2)CC1 [Compound 96, 4-chloro-1-(2-(4-(cyclopropanecarbonyl)piperazin-1-yl)ethyl)-N-(5-((4-fluorophenyl)ethynyl)-3-methylpyridin-2-yl)-1H-pyrazole-5-carboxamide]",180
28,"Cc1cc(C#Cc2cccs2)cnc1NC(=O)c1c(Cl)cnn1C1CC2(C1)CN(C(=O)C1COCCO1)C2 (stereo not shown) [Compound 97, 1-(2-(1,4-dioxane-2-carbonyl)-2-azaspiro[3.3]heptan-6-yl)-4-chloro-N-(3-methyl-5-(thiophen-2-ylethynyl)pyridin-2-yl)-1H-pyrazole-5-carboxamide]",180
